Twelve molecules from PubChem BioAssay (NCI) can be followed below.

Common to all, as to assay: growth of human tumour cells (NCI), 48 h
The subject of test [1] is ACHN renal.
In test [2] the test system is CAKI-1 renal.
Test [3] concerns HCC-2998 colon.
Test [4] has as its system IGROV1 ovarian.
Test [5] concerns NCI-H226 lung.
Test [6] deals with NCI-H522 lung.
Test [7] concerns OVCAR-3 ovarian.
For test [8], the system named is SF-539 CNS.
Test [9] relates to T-47D breast.
Test [10] has as its system U251 CNS.

Each structure is given as a SMILES string. Values joined by “and” are separate entries in the source; they are usually repeats but may differ in a detail not shown here. Equal values may be shown once.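 How tested: cells in 96-well plates exposed to compound for 48 hours at five concentrations. Abbreviation: GI50, concentration required for 50% inhibition of growth. TGI: total growth inhibition.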

For the molecule `Cc1cc(O)cc(C)c1/C=C/c1cncc(C(N)=O)c1`, the GI50 in [1] was 8.43 µM; in test [2], 4.24 µM; in test [3], 21.9 µM; in [4], 2.18 µM; in [5] it was > 15.6 µM; in test [6], 0.779 µM. The GI50 in test [7] was 0.885 µM; in test [8], 1.87 µM; in test [9] it was 1.8 µM; in test [10], 1.49 µM. The TGI was > 25 µM in test [1]; > 25 µM in test [2]; > 25 µM in [3]; > 25 µM in [4]; > 25 µM in [5]; 3.84 µM in test [6]. Also, the TGI in [7] was 3.93 µM; in [8] it was 16.5 µM; in test [9], > 25 µM; in [10], > 25 µM.
Take `Cn1nc(C(F)(F)F)cc1-c1c[nH]c(OCc2ccc(Cl)cc2)c(-c2ccc(Cl)c(C(F)(F)F)c2)c1=O`: the GI50 was 1.28 µM in [1]; 0.917 µM in test [2]; 1.23 µM in [3]; 1.74 µM in [4]; 1.26 µM in test [5]; 0.552 µM in test [6]. Also, the GI50 in [7] is 1.19 µM; in [8], 1.24 µM; in [9], 0.803 µM; in test [10], 1.27 µM. Also, the TGI is 4.23 µM in test [1]; 2.91 µM in [2]; 6.56 µM in [3]; > 40.5 µM in test [4]; 4.27 µM in test [5]; 6.15 µM in [6]. Besides, the TGI in test [7] was 19.5 µM; in test [8] it was 3.96 µM; in test [9], 3.27 µM; in [10], > 17.5 µM.
Take `COc1cccc(/C=N/NC(=O)c2ccccc2N2CCCC2)c1O`: the GI50 in test [1] was 2.72 µM; in [2] it was 3.97 µM; in test [3] it was 47 µM; in [4], 7.05 µM; in test [5] it was 1.84 µM; in test [6], 2.54 µM. Besides, the GI50 is 3.3 µM in [7], 3.73 µM in test [8], 3.02 µM in [9] and 4.27 µM in test [10]. In addition, the TGI in test [1] is > 100 µM; in [2] it was > 100 µM; in test [3], > 100 µM; in test [4], > 100 µM; in test [5], 9.06 µM; in [6] it was > 100 µM. Also, the TGI in test [7] is > 100 µM; in test [8], 24.1 µM; in test [9], 36.9 µM; in [10], > 100 µM.
Consider `O=C(O)C(C(=O)O)P(=S)(S)c1ccccc1` (configuration not stated), for which the TGI in [1], in [2], in test [3], in test [4], in [5] and in [6] was > 100 µM in each case. The TGI in [7], in test [8], in test [9] and in [10] was > 100 µM each time.
For the molecule `CCOC(=O)c1cc(C(=O)c2cc(OC)c(OC)c(OC)c2)n2c1ccc1ccccc12`, the GI50 in [1] is 0.997 µM; in test [2], 0.0717 µM; in [3], 0.514 µM; in test [4], 0.353 µM; in test [5], 1.23 µM; in [6], 0.131 µM. The GI50 was 0.151 µM in test [7], 0.216 µM in [8], 0.57 µM in test [9] and 0.428 µM in test [10]. Also, the TGI in [1] was > 100 µM; in test [2], > 100 µM; in test [3], > 100 µM; in [4] it was > 100 µM; in test [5], > 100 µM; in [7], 1.26 µM. Also, the TGI in test [8] is 0.723 µM; in test [9], > 100 µM; in test [10] it was > 100 µM.
Consider `CONC(C)=O`, for which the TGI in test [1], in test [2], in [3], in test [4], in test [5] and in test [6] was > 100 µM throughout. Also, the TGI in test [7], in [8], in test [9] and in test [10] was > 100 µM in each case.
As for `CCCCCCCCC/C(=N\NC(=O)c1ccncc1)c1ccc(O)c(O)c1O`, the GI50 in [1] was 0.0734 µM; in test [2], 0.088 µM; in [3], 0.199 µM; in test [4], 0.184 µM; in test [5], 0.271 µM; in [6], 0.418 µM. The GI50 is 0.0616 µM in test [7], 0.294 µM in test [8], 0.596 µM in test [9] and 0.11 µM in test [10]. Also, the TGI in [1] is > 100 µM; in test [2], > 100 µM; in test [3], > 36.6 µM; in test [4], > 78.1 µM; in test [5], 14.7 µM; in [6], 23.1 µM. For the same molecule, the TGI in [7] is > 35.7 µM; in [8], 8.71 µM; in test [9] it was > 93.6 µM; in test [10], 65.9 µM.
For `CN(C)CCCCC(C(=O)CBr)(c1ccccc1)c1ccccc1`, the GI50 in test [1] was 1.48 µM; in test [2] it was 1.42 µM; in test [3] it was 2.44 µM; in [4], 3.6 µM; in [5], 2.38 µM; in test [6] it was 1.25 µM. Besides, the GI50 is 1.37 µM in test [7], 2.57 µM in test [8], 1.14 µM in [9] and 3.07 µM in test [10]. For the same molecule, the TGI was found to be 3.03 µM in test [1]; 2.84 µM in test [2]; 5.55 µM in test [3]; 15.6 µM in test [4]; 8.39 µM in test [5]; 3.4 µM in [6]. Also, the TGI is 2.69 µM in test [7], 6.84 µM in test [8], 3.71 µM in test [9] and 11.5 µM in [10].
In the case of `COC(=O)C1=COC(C)C2CN3CCc4c([nH]c5cc(OC)c(OC)cc45)C3CC12` (configuration not stated), the TGI is > 100 µM in test [1]; > 100 µM in [2]; > 100 µM in test [3]; > 100 µM in test [4]; > 100 µM in [5]; > 100 µM and 57.2 µM in test [6]. Also, the TGI in [7], in test [8], in test [9] and in [10] was > 100 µM throughout. Also, the GI50 in test [4] was > 100 µM and 45.7 µM; in test [6], > 100 µM and 22 µM; in test [10], > 100 µM and 47.4 µM.
As for `O=[N+]([O-])c1ccc(C2CC(c3ccccc3)=Nc3ccccc3S2)cc1` (configuration not stated), the GI50 was 88.7 µM in [1]; > 100 µM in [2]; > 100 µM in test [3]; 13.3 µM in test [4]; > 100 µM in test [5]; > 100 µM in test [6]. The GI50 in [7] is 11.8 µM; in [8], > 100 µM; in [9] it was > 100 µM; in [10] it was 4.7 µM. Besides, the TGI in test [1], in [2], in [3], in test [4], in test [5] and in [6] was > 100 µM in each case. The TGI in test [7], in [8], in [9] and in test [10] was > 100 µM in each case.
Regarding `Cc1ccc(-c2cc3c4c(nc5ccccc53)C(=O)c3cccnc3-c4n2)cc1`, the GI50 in [1] is 22.5 µM; in [2] it was 29.7 µM; in test [3], 17.2 µM; in [4] it was 10.7 µM; in test [5], 56.4 µM; in test [6] it was 5.55 µM. Moreover, the GI50 in test [7] was 1.85 µM; in test [8], 6.68 µM; in test [9] it was 22.7 µM; in test [10] it was 9.51 µM. Further, the TGI in test [1] was 80.6 µM; in test [2] it was > 100 µM; in [3], 33.2 µM; in test [4] it was 55.4 µM; in test [5], > 100 µM; in test [6], 21.9 µM. Further, the TGI was > 50.1 µM in test [7], 26.7 µM in test [8], 99.4 µM in [9] and > 66.9 µM in test [10].
For `CCOC(=O)Nc1nc2ccc(Br)cc2s1`, the GI50 in test [1], in test [2], in [3], in [4], in [5] and in test [6] was > 50 µM each time. The GI50 in test [7], in test [8], in test [9] and in test [10] was > 50 µM throughout. Besides, the TGI in test [1], in test [2], in test [3], in test [4], in test [5] and in test [6] was > 50 µM throughout. Moreover, the TGI in test [7], in test [8], in test [9] and in test [10] was > 50 µM each time.
